Results reported in patent US11628226B2, “Methods and gene therapy constructs for treating GM2 gangliosidoses” (priority 2016, dated 2023).

Assays:
Sandhoff mouse (hexb-/-) [1] = assay: Open field test of motor activity in SD mice; type: in vivo; settings: HEXB-HEXA treated SD mice plus drug, week 24
Experimental: Behavioural testing was carried out on a bi-weekly basis from the age of eight weeks until each end point. The behavioural testing was done in three different parts and always assessed in the morning of the 12 hour light cycle.
Open Field Test: Used to assess overall locomotion and activity levels. The mouse was placed in a 40 cm×40 cm arena with walls. Time moving, rearing activity and the distance travelled were all electronically recorded by an ActiMot system. Speed was calculated by dividing the distance travelled by the time moving. Each mouse underwent one five minute trial.
To determine if the administration of AAV9-HexB-HexA improved motor activity in the neonatally treated SD mice, distance travelled in the 5-minute open-field test was analyzed. Testing began at eight weeks, when motor deterioration in SD mice begins to show and continued on a bi-weekly basis to 24 weeks. […] In FIG. 4, values at each point represent the mean.

[2] = system: β-hexosaminidase A (HexA); assay: HexA activity in midbrain (4-MUGS assay); type: in vivo, mouse; settings: 16-week midbrain, drug alone or in conjunction with HEXB-HEXA
Experimental: Animal tissues were collected at designated 16 week end points and long term humane end points. The humane end points were determined by either […] loss of peak body weight or an inability to right itself in 10 seconds. Euthanization was carried out via CO2 asphyxiation followed by cardiac puncture and perfusion with 10 mL of chilled PBS. For biochemical analysis sections of the forebrain, midbrain, hindbrain, cervical spinal cord, and lumbar spinal cord were collected along with the heart, lungs, liver, spleen, kidney, gonads, and a section skeletal muscle. These were all frozen immediately for further processing. […]
Total hexosaminidase activity and Hex activity was measured as previously described (Maegawa et al. 2007; Tropak et al. 2004). […] Total hexosaminidase activity was determined through the use of the 4-methylumbelliferyl-2-acetamido-2-deoxy-β-D-glucopyranoside (4-MUG) assay, whereas the HexA enzyme activity alone was determined through the use of the 4-methylumbelliferyl-7-6-sulfo-2-acetamido-2-deoxy-β-D-glucopyranoside (4-MUGS) assay. Beta galactosidase activity was determined through the use of 4-methylumbelliferyl-β-D-galactopyranoside assay. […] Briefly, the samples were incubated with the fluorogenic substrate at 37° C. for 1 hour, then read on the plate reader with excitation wavelength of 365 nm and an emission wavelength of 450 nm. […]

Sandhoff mouse (hexb-/-) [3] = assay: Survival of SD mice (Kaplan-Meier, humane end point); type: in vivo; settings: for Survival in conjunction with HEXB-HEXA: AAV9-HEXB-HEXA neonatal day one 2×10^13 vg/kg plus daily oral drug from eight weeks; for Survival time: untreated SD mice 110 days; for Mice that did not reach humane end point after 210 days: drug in conjunction with HEXB-HEXA, n=6 per group
Experimental: The hexb−/− experimental mice were obtained from Jackson Laboratories. From these, a colony was established at Queen's University through heterozygous breeding (hexb+/−). Genotyping of the mice was carried out via PCR amplification from animal ear punches taken at the time of weaning (three weeks of age). Experimental animals were obtained through mutant cross breeding (hexb−/−). The mice were maintained on a 12-hour light cycle from 7 am to 7 pm. All experimental protocols and procedures were performed in accordance with and were approved by the Queen's University Animal Care Committee.
Neonatal mice were intravenously injected with the ssAAV/HEXB-HEXA vector or a vehicle injection through the superficial temporal vein on day 0-1. Each treated mouse received an injection of 2.04×10^10 vg/mouse in a volume of 50 uL PBS with […] NaCl and 5% sorbitol (vehicle). Untreated mice received an injection of 50 uL vehicle. During the injections, the dames were removed from the pups and placed in a clean cage. The cage of the pups alone was placed on a heating pad to keep them warm. Pups were then removed from the cage, one at a time, and placed over an LED light to aid in visualization of the superficial temporal vein. The pups received the injection using a 30 gauge needle and 1 mL syringe. After the injection, pressure was applied to the mouse using sterile gauze and the pup was returned to the home cage. The dame was returned to the cage with the pups following the completion of all injections. Pups were then monitored closely for several days to ensure survival.
Starting at eight weeks of age, each drug treatment cohort received pyrimethamine, indomethacin, or ITF2357 at a dose of 1 mg/kg/day. Drug treatments were administered in the morning of the 12-hour light cycle via oral gavage using a 22 g curved feeding needle from Kent Scientific. ITF2357 was dissolved in ddH2O by heating to 85° C. while stirring for 1 hour. Indomethacin and pyrimethamine were each dissolved in 0.5% methylcellulose by heating to 80° C. while stirring for 1 hour. Each of these was stored at 4° C. for up to 2 weeks.
(§1) Animal tissues were collected at designated 16 week end points and long term humane end points. The humane end points were determined by either […] loss of peak body weight or an inability to right itself in 10 seconds. Euthanization was carried out via CO2 asphyxiation followed by cardiac puncture and perfusion with 10 mL of chilled PBS. For biochemical analysis sections of the forebrain, midbrain, hindbrain, cervical spinal cord, and lumbar spinal cord were collected along with the heart, lungs, liver, spleen, kidney, gonads, and a section skeletal muscle. These were all frozen immediately for further processing. For histological purposes, sections of the midbrain and liver were collected, fixed in 4% paraformaldehyde overnight and then immersed in 100% ethanol until sent to the Queen's University Histology department for paraffin embedding. Additional midbrain sections were collected from a number of mice and frozen in liquid nitrogen. Blood was collected via the saphenous vein on a monthly basis starting at 8 weeks and continuing until the humane end point. Additionally, blood was collected via the cardiac puncture during euthanization. Serum was separated from blood samples by centrifugation of 4000 rpm for 10 min and frozen immediately for storage.
To evaluate the efficacy of a single intravenous […] of rAAV9 expressing the human HEXA and HEXB cDNA in ameliorating the biochemical and neurological phenotype in SD, AAV9-HEXB-HEXA or a vehicle control was administered to postnatal day one neonates at a relatively low dose of 2×10^13 vg/kg via superficial temporal vein. Mice were all followed until they reached 32 weeks of age, or a humane end point.
Survival was analyzed with the log-rank (Mantel-Cox) test. […] This relationship is shown by the Kaplan-Meier plots in FIG. 3. […]

[4] = system: GM2 ganglioside storage in mouse brain; assay: GM2 ganglioside levels in midbrain by thin layer chromatography; type: in vivo; settings: 16-week midbrain, drug on its own or in addition to HEXB-HEXA
Experimental: as §1, with “storage. […]” for “storage.”

[5] = SD mice, drug alone 1 mg/kg/day oral gavage from eight weeks

| SMILES | Mobility in the open field test in conjunction with HEXB-HEXA (Sandhoff mouse (hexb-/-) [1]) | Further change in HexA activity [2] | Survival in conjunction with HEXB-HEXA (Sandhoff mouse (hexb-/-) [3]; SD mice) | Survival time (Sandhoff mouse (hexb-/-) [3]; [5]) [days] | Mice that did not reach humane end point after 210 days (Sandhoff mouse (hexb-/-) [3]) | Additional decrease in GM2 ganglioside build-up [4] | Survival (mean) (Sandhoff mouse (hexb-/-) [3]; SD mice, drug alone 1 mg/kg/day oral gavage from eight weeks, no significant effect) [days] |
| --- | --- | --- | --- | --- | --- | --- | --- |
| CCN(CC)Cc1ccc2cc(COC(=O)Nc3ccc(C(=O)NO)cc3)ccc2c1 [ITF2357] | significant increase in mobility | no further increase or decrease | significant increase in survival | 119 | two | No additional decrease |  |
| CCc1nc(N)nc(N)c1-c1ccc(Cl)cc1 [pyrimethamine] |  |  |  |  |  |  | 112.5 |
| COc1ccc2c(c1)c(CC(=O)O)c(C)n2C(=O)c1ccc(Cl)cc1 [indomethacin] | significant increase in mobility | no further increase or decrease | significant increase in survival | 123.5 | two | No additional decrease |  |
